These results are taken from patent US9611281B2, “BODIPY derivatives and methods of synthesis and use thereof” (The Board of Regents of the University of Oklahoma, priority 2013, dated 2017).

Data set [1] can be described thus: Optical properties (absorption, emission, extinction coefficient) of BDP635 and derivative SBDPiRs. The data set is classed as physicochemical.
A further data set concerns colon-26 tumor model. Nature of the data set: In vivo PDT response following SBDPiR690 treatment. The arrangement: species or system Balb/c mice. As for the experimental part:
25 animals were divided into 4 groups: control, dark control (SBDPiR690 only), light control (light only), and SBDPiR690-with light exposure (PDT). SBDPiR690 was intravenously injected into mice with colon-26 tumor model, followed by light illumination after 15 minutes postinjection using a light dose of 100 mW/cm^2 (FIGS. 28-29). Mice body weight and tumor response at high light doses (˜500 J cm^−2) were used for initial toxicity profiles.

In the next data set the test system is colon cancer tumors. Nature of the data set: H&E histology of tumors after SBDPiR690 PDT. The data set is classed as in vivo, Balb/c mice. Conditions: 1 day post treatment. From the text:
To access the effect of SBDPiR690 on the tumor regions, tumor samples were collected from SBDPiR690 treated and control mice 1 day post treatment. The samples were fixed, embedded, sectioned, and stained using hematoxylin and eosin.

A short description of data set [2]: Real time whole body imaging of SBDPiR690 clearance and biodistribution. The arrangement: species or system mice. To be noted: mouse, in vivo. The procedure:
The inherent fluorescent properties of SBDPiR690 enabled its use in real time whole body imaging to evaluate the clearance and biodistribution of the drug in organs, making it an applicable theranostic agent. The drug clears from organs and tissue by 24 hours, reducing the occurrence of skin photo-toxicity, which is a major problem among photosensitizers. […] These findings show the effectiveness of SBDPiR690 as a photosensitizer for use in PDT in clinical setting.

The nature of data set [3]: Singlet oxygen generation, indirect method of DPBF photooxidation. To be noted: DPBF photooxidation monitored at 410 nm. As for the experimental part: Singlet oxygen generation and photostability: A singlet oxygen generation experiment on compound 53 using the indirect method of DPBF photooxidation was performed. There were strong similarities of the behavior of 53 towards DPBF with SBDPiR715. […] The photooxidation of DPBF was monitored by UV-vis spectrophotometer at 410 nm. […] Additionally, less than 30% of 53 photobleached under the harsh light illumination condition over a period of an hour, which is a strong evidence for photostability (FIG. 21).

The test system of the next data set is colon-26 tumors. The experiment in a line: In vivo SBDPiR715-mediated PDT. The procedure:
PS: To obtain an injection solution of SBDPiR715, the emulsifier Tween 80 was used. Tween 80 is a nonionic surfactant, frequently used in vivo as a solubilizing agent for highly lipophilic therapeutics. The formulation procedure required dissolving the PS in a minimal amount of Tween 80 (100 μl). The paste was allowed to stand overnight. 5% Dextrose in phosphate-buffered saline (PBS) solution was added, and the solution was sonicated for 1 hour. The resulting green solution was filtered through a 0.2 μm membrane filter. To ensure the accuracy of the concentration, which might vary due to partial solubility of the PS, the exact concentration was confirmed by UV-visible spectral analysis of the solutions prior to dosing.
Cells and Animal Models: Colon-26 mouse carcinoma cells were obtained from the American Type Culture Collection (ATCC) and cultured in minimum essential medium supplemented with 10% (v/v) fetal calf serum (FCS), 50 U ml^−1 penicillin, 50 μg ml^−1 streptomycin, and 1% (v/v) L-glutamine. The cells were maintained in 5% CO2 (v/v) and 21% O2 (v/v) at 37° C. All animal experiments were approved by IACUC of the University of Oklahoma Health Sciences Center. Female BALB/c mice were received from Charles River at 6-8 weeks old. Balb/c mice were shaved on the upper back and depilated with Nair (Carter-Wallace Inc., New York, N.Y., USA). Mice were anesthetized with an i.p. injection of ketamine/xylazine cocktail (90 mg kg^−1 ketamine and 10 mg kg xylazine). One million colon-26 cells were injected subcutaneously in one dorsal neck area suspended in […] PBS. Tumors grew predictably in all the mice and reached a size of 4- to 6-mm diameter in 5-7 days, or 8-11 mm in 14-16 days after injection, at which time they were used for PDT.
SBDPiR715 in 1% Tween 80-5% Dextrose solvent was injected i.p. at a dose of 3 μmol/kg (2.2 mg/kg) and 5 μmol/kg (3.7 mg/kg) in 0.2 ml solution. Tumors were irradiated 6 hours, 24 hours, or 32 hours after the injection using a Lumacare LC-122M with a fiber-optic light delivery system (Lumacare, Newport Beach, Calif., USA) emitting light at 700 nm (±40 nm). […] No evident temperature increase was detected at the site of irradiation. Mice were anesthetized as described above, and the tumor-bearing limb was positioned under the spot. Total dose of 200-300 mW/cm^2 was delivered for 30 minutes (360-540 J cm^−2). Mice bearing colon-26 tumors were also irradiated without having received injection of SBDPiR715. Another group of animals was treated with SBDPiR715 i.p. without irradiation. After irradiation, mice were allowed to recover in an animal cotton blanket until they resumed normal activity. A positive tumor response was ascribed to tumors that appeared flat blackened or reddened scarp and necrotic tissue within a few days after PDT. Animals were considered cured after complete tumor regression and the absence of a palpable tumor.

A short description of data set [4]: Drug biodistribution of SBDPiR715. The data set is classed as in vivo, Balb/c mice. Conditions: 5 μmol/kg i.p., 24 hours postinjection. As for the experimental part: Mice were injected via i.p. with SBDPiR715 (5 μmol/kg/3.7 mg/kg). After 24 hours postinjection, the mice (n=3) were euthanized by CO2 inhalation. Tissues were excised from major organs and tumor. Collected tissues were rinsed with PBS and blotted dry. One hundred milligram of excised tissue was homogenized with CHCl3 (1 ml). The homogenates were centrifuged at 5160 g for 20 minutes, and the supernatant was used for fluorescence measurement (excitation at 710 nm and emission at 754 nm). The amount of compound in each sample was evaluated relative to the standard curve and expressed in “mg/g of tissue” unit.

The structures appear in SMILES notation. Where only a bound is given, the exact number is not on record here.

On to `F[B-]1(F)n2c(cc3sc(-c4ccccc4)cc32)C(C(F)(F)F)=C2C=c3sc(-c4ccccc4)cc3=[N+]21` [SBDPiR690, 2,8-Di(phenyl)-1-trifluoromethyl-dithieno[2,3-b]-[3,2-g]-5,5-difluoro-5-bora-3a,4a-diaza-s-indacene], for which, in data set [1], the ε is listed as 120 000 M^−1 cm^−1, the λabs is listed as 688 nm and the λflu stood at 700 nm. Besides, the palpable tumor result in the data set with colon-26 tumor model (60 days post-treatment) is “no palpable tumor observed”. Moreover, in the data set on colon-26 tumor model (SBDPiR690-induced PDT), the tumor volume entry is “elimination of tumors”. In addition, the tumor necrosis entry in the data set on colon-26 tumor model (after 24-72 h, light fluence 150 J cm^−2) is recorded as “Mass necrosis localized at the tumor region”. In the data set with colon-26 tumor model (after 60 days, SBDPiR690-induced PDT), this molecule yielded a survival of 100%. Besides, the oedema and inflammation result in the data set on colon-26 tumor model (after PDT) was “oedema and inflammation was observable after 24 hours, but healed after a few days”. Besides, the body weight result in the data set on colon-26 tumor model (high light doses (~500 J cm^−2)) is “fairly constant”. In addition, the “tissue morphology (H&E)” value in the data set on colon cancer tumors is recorded as “necrosis associated with the treated mice”. In addition, in data set [2], the “clearance from organs and tissue” value is at most 24 h.
As for `COc1ccc(-c2sc3c(c2Br)=[N+]2C(=C(C(F)(F)F)c4cc5sc(-c6ccc(OC)cc6)c(Br)c5n4[B-]2(F)F)C=3)cc1` [SBDPiR715], the singlet oxygen generation result in data set [3] is “effective singlet oxygen generation”. In addition, the extent of necrosis entry was “necrosis spread to neighboring skin regions” in the data set with colon-26 tumors (6 and 24 hour drug-light interval); “confinement of necrosis to the tumor region” in the data set with colon-26 tumors (32 hour drug-light interval). This molecule came in with a tumor healing time in the data set with colon-26 tumors (after PDT, with remodeling of damaged tissue) of about 30 days. The “tumor response to PDT” value in the data set with colon-26 tumors (all treatment groups (6, 24, 32 h drug-light interval), monitored for 90 days) is listed as “complete tumor ablation”. Moreover, the “weight loss / visual signs of toxicity” value in the data set on colon-26 tumors (treatment dose 5 μmol/kg (3.7 mg/kg) i.p.) was “No weight loss or other visual signs of toxicity”. The “onset of tumor necrosis after PDT” value with colon-26 tumors (treatment groups) is “mass necrosis and eschar within a day”. Besides, the organ biodistribution result in data set [4] is “a higher accumulation of SBDPiR715 was observed in the liver and spleen”.
